{
  "source": "patent US7425533B2",
  "about": "“Modified hirudin proteins and T-cell epitopes in hirudin” (Merck Patent GmbH, priority 2003, dated 2008)",
  "molecules": {"B1": {"name": "M 25: hirudin mutein I29R L30R, SEQ ID NO: 28 (protein)", "chain": "VVYTDCTESGQNLCLCEGSVVCGQGNKCRRGSDGEKNQCVTGEGTPKPESHNDGDFEEIPEEYLQ", "modifications": "ends and bridges not checked"}, "B2": {"name": "M 19: hirudin mutein I29E L30K, SEQ ID NO: 22 (protein)", "chain": "B1 chain with R29E, R30K", "modifications": "ends and bridges not checked"}},
  "key": {"[1]": {"test_system": "PBMC from healthy donors", "assay": "time-course T-cell assay, PBMC proliferation with WT and variant peptides", "assay_type": "cell-based, human", "details": "cohorts of 20 healthy donors, SI>2 at any time point, days 6, 7, 8 and 9", "text": "“Time course assay” refers to a biological assay such as a proliferation assay in which determinations of activity are made sequentially over a period of time. In the present context, a “time course T-cell assay”, refers to the determination of T-cell proliferation in response to a test immunogen (peptide) at multiple times following exposure to the test immunogen. The terms “time course T-cell assay” and “time course immunogenicity assay” may be used interchangeably herein.\nBulk cultures of 2-4×10^6 PBMC/well were established from 20 healthy donor samples in 24 well plates. Cells were incubated for 6 to 9 days with WT and variant peptides spanning the immunogenic regions (see Table 4). T cell proliferation was assessed by tritiated thymidine incorporation on days 6, 7, 8 and 9. Proliferation was assessed at each time point, by gently resuspending the bulk cultures and removing samples of PBMC, that were then incubated in triplicate wells of U-bottomed 96 well plate with 1 μCi/well tritiated thymidine for 18 hours as described above.\nThe time course assay was used to test variant peptides containing substitutions over WT. Substitutions were made at key locations where there was expectation that the substitution would prevent binding to MHC class II and therefore, subsequent T cell proliferation in the assay. FIG. 2 and FIG. 3 respectively show exemplary donor responses over the time course and overall response frequencies."}, "[2]": {"test_system": "human PBMCs", "assay": "T-cell epitope mapping, PBMC proliferation (tritiated thymidine) with 15 mer hirudin peptides", "assay_type": "cell-based", "details": "for donor response (SI>2): initial analysis, 25 donor samples, peptides at 1 μM and 10 μM, 7 days"}, "[3]": {"details": "cited from earlier work"}, "[4]": {"target": "serine protease thrombin (Homo sapiens, UniProt P00734)", "details": "native hirudin; cited from earlier work"}, "[5]": {"target": "T1, thrombin (Homo sapiens, UniProt P00734)", "T1 construct": "purchased Diagnostica Stago (via Axis Shield Diagnostics, Dundee, UK) Stachrom HCII assay kit (catalogue number not given)", "assay": "chromogenic thrombin inhibition assay", "assay_type": "biochemical", "details": "chromogenic substrate H-D-Phe-Pep-Arg-pNA, 37° C., relative to WT hirudin", "text": "A “thrombin inhibition assay” according to the present context means an in vitro assay able to provide a reading of the functional capability of the test protein. In the present instance this means the ability of a given hirudin mutein to evoke a specific measurable chromogenic response. Particularly suitable assays are exemplified herein using thrombin and the chromogenic thrombin substrate H-D-Phe-Pep-Arg-pNA. Other assay formats can be contemplated to also provide quantitative estimations of specific activity of the test molecules and permit ED50 determinations. […]\nThe functional activity of the modified hirudin proteins was assessed using a chromogenic thrombin inhibition assay. […] The chromogenic substrate H-D-Phe-Pep-Arg-pNA is then added and any residual free thrombin present will cleave the substrate to form H-D-Phe-Pep-Arg-OH and pNA that can then be detected spectrophotometrically at 405 nm […]\nThe plate was warmed to 37° C. for 5 minutes followed by addition of 40 μl thrombin and incubated for 120 seconds at 37° C. with shaking. […] 40 μl acetic acid was added to quench reaction and the plate was read spectrophotometrically at 405 nm. Absorbance at 405 nm vs hirudin concentration was plotted using Sigma plot (Sigma Poole, UK) and IC50 values calculated by fitting a sigmoidal equation. […]"}},
  "note": "Positions count from the first letter of the chain named. Names may count otherwise. “And” between values parts separate entries of the source, which are not always exact repeats. Equal values may be shown once.",
  "data": [
    {"molecule": "CEKGSDGEKNQCVTG (modified hirudin sequence)", "values": [
      {"measurement": "% donor response in time course", "setting": "[1]", "value": 10, "unit": "%"}
    ]},
    {"molecule": "CAAGSDGEKNQCVTG (modified hirudin sequence)", "values": [
      {"measurement": "% donor response in time course", "setting": "[1]", "value": 5, "unit": "%"}
    ]},
    {"molecule": "10: 15 mer hirudin peptide GNKCILGSDGEKNQC, SEQ ID NO: 96 (hirudo medicinalis) [Peptide 10]", "values": [
      {"measurement": "donor response (SI>2)", "setting": "[2]", "value": 8, "unit": "%"}
    ]},
    {"molecule": "CRHGSDGEKNQCVTG (modified hirudin sequence)", "values": [
      {"measurement": "% donor response in time course", "setting": "[1]", "value": 5, "unit": "%"}
    ]},
    {"molecule": "15: 15 mer hirudin peptide VTGEGTPKPESHNDG, SEQ ID NO: 101 (hirudo medicinalis) [Peptide 15]", "values": [
      {"measurement": "final response rate", "setting": "[2]; across a total of 55 donor samples", "value": 4, "unit": "%"},
      {"measurement": "donor response (SI>2)", "setting": "[2]", "value": 8, "unit": "%"}
    ]},
    {"molecule": "[Leu^1, Thr^2]-63-desulphohirudin [lepirudin]", "values": [
      {"measurement": "fatal outcomes", "setting": "[3]; among the severe anaphylaxis cases, previous treatment course 1 to 12 weeks earlier", "value": 4},
      {"measurement": "patients judged to have had severe anaphylaxis", "setting": "[3]; between 1994 and 2002, within minutes of intravenous administration", "value": 9, "unit": "patients"}
    ]},
    {"molecule": "CILGSDGEKNQCVTG (hirudo medicinalis) [reference compound]", "values": [
      {"measurement": "% donor response in time course", "setting": "[1]", "value": 25, "unit": "%"}
    ]},
    {"molecule": "Hirudin", "values": [
      {"measurement": "Ki", "setting": "[4]", "value": "10^−11 to 10^−14 M"}
    ]},
    {"molecule": "B1", "values": [
      {"measurement": "Relative Activity (Ratio of variant IC50/WT IC50)", "setting": "[5]", "value": 0.70}
    ]},
    {"molecule": "B2", "values": [
      {"measurement": "Relative Activity (Ratio of variant IC50/WT IC50)", "setting": "[5]", "value": "1.0 and 0.55"}
    ]}
  ]
}
